According to PubChem BioAssay AID248 (DTP/NCI, 2004):
“And” between values parts separate entries of the source, which are not always exact repeats. Equal values may be shown once. Toxic doses and inconclusive results are not listed. Cut-off read from the data, not from the text of the source: active = T/C of 150% or more; inactive = T/C below 125%.

Tested on: L1210 leukemia ip in BDF1 mice, survival T/C
Experiment: NCI In Vivo Anticancer Drug Screen. Data for tumor model L1210 Leukemia (intraperitoneal) in B6D2F1 (BDF1) mice
Settings: endpoint: mean survival time, higher = longer survival
Outline: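 Read-out is survival time, reported as the treated-group measurement over the vehicle-control measurement.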

[1] = dose: 50.0 mg/kg/injection, schedule: Q01DX009 (ip), vehicle: saline
[2] = dose: 100.0 mg/kg/injection, schedule: Q01DX009 (ip), vehicle: saline
[3] = dose: 100.0 mg/kg/injection, schedule: Q04DX003 (ip), vehicle: saline with Tween-80
[4] = dose: 200.0 mg/kg/injection, schedule: Q01DX009 (ip), vehicle: saline
[5] = dose: 200.0 mg/kg/injection, schedule: Q04DX003 (ip), vehicle: saline with Tween-80
[6] = dose: 100.0 mg/kg/injection, schedule: Q01DX001 (ip), vehicle: saline
[7] = dose: 100.0 mg/kg/injection, schedule: Q04DX003 (ip), vehicle: saline
[8] = dose: 200.0 mg/kg/injection, schedule: Q01DX001 (ip), vehicle: saline
[9] = dose: 200.0 mg/kg/injection, schedule: Q04DX003 (ip), vehicle: saline
[10] = dose: 400.0 mg/kg/injection, schedule: Q01DX001 (ip), vehicle: saline
[11] = dose: 400.0 mg/kg/injection, schedule: Q01DX009 (ip), vehicle: saline
[12] = dose: 400.0 mg/kg/injection, schedule: Q04DX003 (ip), vehicle: saline
[13] = dose: 100.0 mg/kg/injection, schedule: Q04DX002 (ip), vehicle: Klucel (hydroxypropylcellulose) (HPC)
[14] = dose: 200.0 mg/kg/injection, schedule: Q04DX002 (ip), vehicle: Klucel (hydroxypropylcellulose) (HPC)
[15] = dose: 100.0 mg/kg/injection, schedule: Q01DX001 (ip), vehicle: carboxymethylcellulose (CMC)
[16] = dose: 100.0 mg/kg/injection, schedule: Q01DX009 (ip), vehicle: saline with Tween-80
[17] = dose: 200.0 mg/kg/injection, schedule: Q01DX001 (ip), vehicle: carboxymethylcellulose (CMC)
[18] = dose: 200.0 mg/kg/injection, schedule: Q01DX009 (ip), vehicle: saline with Tween-80
[19] = dose: 400.0 mg/kg/injection, schedule: Q01DX001 (ip), vehicle: carboxymethylcellulose (CMC)
[20] = dose: 400.0 mg/kg/injection, schedule: Q01DX009 (ip), vehicle: saline with Tween-80

Measured: T/C

CCN(CC)CCN1C(=O)CN=C(c2ccccn2)c2cc(Cl)ccc21
inactive: [1] 101 % of control | [2] 104 % of control | [3] 97 % of control | [4] 112 % of control | [5] 92 % of control

Cc1ccc(S(=O)(=O)CCCCCl)cc1
inactive: [6] 101 % of control | [2] 100 % of control | [7] 95 % of control | [8] 96 % of control | [4] 97 % of control | [9] 92 % of control | [10] 104 % of control | [11] 89 % of control | [12] 98 % of control

CCCNC(=O)c1cc(NC(=O)Nc2ccc(C3=NCCCN3)cc2)cc(NC(=O)Nc2ccc(C3=NCCCN3)cc2)c1
inactive: dose: 21.0 mg/kg/injection, schedule: Q01DX Z (ip), vehicle: carboxymethylcellulose (CMC) 115 % of control | dose: 42.0 mg/kg/injection, schedule: Q01DX Z (ip), vehicle: carboxymethylcellulose (CMC) 113 % of control | dose: 84.0 mg/kg/injection, schedule: Q01DX Z (ip), vehicle: carboxymethylcellulose (CMC) 117 % of control

O=P(NCCCO)(OCc1ccccc1)N(CCCl)CCCl (stereo not drawn)
inactive: dose: 62.5 mg/kg/injection, schedule: Q01DX010 (ip), vehicle: saline 87 % of control | dose: 125.0 mg/kg/injection, schedule: Q01DX010 (ip), vehicle: saline 98 % of control | dose: 250.0 mg/kg/injection, schedule: Q01DX010 (ip), vehicle: saline 90 % of control | dose: 250.0 mg/kg/injection, schedule: Q01DX Z (ip), vehicle: saline 95 % of control | dose: 500.0 mg/kg/injection, schedule: Q01DX Z (ip), vehicle: saline 95 % of control | dose: 750.0 mg/kg/injection, schedule: Q01DX Z (ip), vehicle: saline 118 % of control

Nc1cncc([N+](=O)[O-])c1N
inactive: [7] 98 % of control | [9] 96 % of control | [12] 94 % of control

O=C(Nc1ccccc1C(=O)N/N=C/c1ccccc1O)c1ccccc1Cl
inactive: dose: 100.0 mg/kg/injection, schedule: Q01DX009 (ip), vehicle: Klucel (hydroxypropylcellulose) (HPC) 94 % of control | dose: 200.0 mg/kg/injection, schedule: Q01DX009 (ip), vehicle: Klucel (hydroxypropylcellulose) (HPC) 94 % of control | dose: 400.0 mg/kg/injection, schedule: Q01DX009 (ip), vehicle: Klucel (hydroxypropylcellulose) (HPC) 94 % of control

CCSCN1CCN(CSCC)C(C)C1 (stereo not drawn)
inactive: [6] 104 % of control | [8] 106 % of control | [10] 112 % of control

O=C(O)/C(=C\c1ccccc1Cl)c1ccccc1
inactive: [13] 94 % of control | [14] 90 % of control

Nc1c(Cl)cc([N+](=O)[O-])cc1Cl
inactive: dose: 50.0 mg/kg/injection, schedule: Q01DX001 (ip), vehicle: carboxymethylcellulose (CMC) 95 % of control | [15] 92 % of control | [16] 103 % of control | [3] 97 % of control | [17] 106 % of control | [18] 92 % of control | [5] 93 % of control | [19] 95 % of control | [20] 95 % of control | dose: 400.0 mg/kg/injection, schedule: Q04DX003 (ip), vehicle: saline with Tween-80 93 % of control

CCCCCCCCCCC1CC2CCCC3CCC4CCCC1C4C32 (stereo not drawn)
inactive: dose: 100.0 mg/kg/injection, schedule: Q01DX001 (ip), vehicle: saline with Tween-80 95 % of control | dose: 200.0 mg/kg/injection, schedule: Q01DX001 (ip), vehicle: saline with Tween-80 108 % of control | dose: 400.0 mg/kg/injection, schedule: Q01DX001 (ip), vehicle: saline with Tween-80 100 % of control

C=CC(=O)c1ccccc1
inactive: dose: 25.0 mg/kg/injection, schedule: Q04DX002 (ip), vehicle: saline with Tween-80 100 % of control | dose: 50.0 mg/kg/injection, schedule: Q04DX002 (ip), vehicle: saline with Tween-80 87 % of control | dose: 100.0 mg/kg/injection, schedule: Q04DX002 (ip), vehicle: saline with Tween-80 94 % of control

CCCCCCCCCCCCCCCCOC(=O)C[n+]1cccc(C(N)=O)c1
inactive: [7] 92 % of control | [9] 99 % of control

CC(=O)C1(O)CCC2C3CC=C4CC(O)CCC4(C)C3CCC21C (stereo not drawn)
inactive: [15] 102 % of control | dose: 100.0 mg/kg/injection, schedule: Q01DX009 (ip), vehicle: carboxymethylcellulose (CMC) 87 % of control and 90 % of control | dose: 100.0 mg/kg/injection, schedule: Q04DX002 (ip), vehicle: carboxymethylcellulose (CMC) 98 % of control and 100 % of control | dose: 100.0 mg/kg/injection, schedule: Q04DX003 (ip), vehicle: carboxymethylcellulose (CMC) 97 % of control | [17] 94 % of control | dose: 200.0 mg/kg/injection, schedule: Q01DX009 (ip), vehicle: carboxymethylcellulose (CMC) 96 % of control and 97 % of control | dose: 200.0 mg/kg/injection, schedule: Q04DX002 (ip), vehicle: carboxymethylcellulose (CMC) 100 % of control and 110 % of control | dose: 200.0 mg/kg/injection, schedule: Q04DX003 (ip), vehicle: carboxymethylcellulose (CMC) 98 % of control | [19] 98 % of control | dose: 400.0 mg/kg/injection, schedule: Q01DX009 (ip), vehicle: carboxymethylcellulose (CMC) 93 % of control and 94 % of control | dose: 400.0 mg/kg/injection, schedule: Q04DX002 (ip), vehicle: carboxymethylcellulose (CMC) 97 % of control and 100 % of control | dose: 400.0 mg/kg/injection, schedule: Q04DX003 (ip), vehicle: carboxymethylcellulose (CMC) 88 % of control

CN1CCC2(CC1)C(=O)N(Cc1ccccc1)C(=O)C2c1ccccc1 (stereo not drawn)
inactive: dose: 25.0 mg/kg/injection, schedule: Q04DX002 (ip), vehicle: saline 108 % of control | [13] 93 % of control | dose: 100.0 mg/kg/injection, schedule: Q04DX002 (ip), vehicle: saline 104 % of control and 118 % of control | [14] 86 % of control

c1ccc2cc(-c3cc4ccccc4s3)ccc2c1
inactive: [6] 106 % of control | dose: 100.0 mg/kg/injection, schedule: Q01DX009 (ip), vehicle: acetone 98 % of control | dose: 100.0 mg/kg/injection, schedule: Q04DX003 (ip), vehicle: acetone 100 % of control | [8] 103 % of control | dose: 200.0 mg/kg/injection, schedule: Q01DX009 (ip), vehicle: acetone 104 % of control | dose: 200.0 mg/kg/injection, schedule: Q04DX003 (ip), vehicle: acetone 98 % of control | dose: 264.0 mg/kg/injection, schedule: Q01DX009 (ip), vehicle: saline 110 % of control | [10] 104 % of control | [11] 115 % of control | dose: 400.0 mg/kg/injection, schedule: Q04DX003 (ip), vehicle: acetone 90 % of control

CC1(C)CC(=O)C=C(NC2CCCCC2)C1
inactive: dose: 50.0 mg/kg/injection, schedule: Q01DX009 (ip), vehicle: saline sonified 94 % of control | dose: 100.0 mg/kg/injection, schedule: Q01DX009 (ip), vehicle: saline sonified 103 % of control | dose: 100.0 mg/kg/injection, schedule: Q04DX003 (ip), vehicle: Klucel (hydroxypropylcellulose) (HPC) 96 % of control | dose: 200.0 mg/kg/injection, schedule: Q01DX009 (ip), vehicle: saline sonified 92 % of control | dose: 200.0 mg/kg/injection, schedule: Q04DX003 (ip), vehicle: Klucel (hydroxypropylcellulose) (HPC) 98 % of control

O=[N+]([O-])c1ccccc1S/N=C/c1ccccc1O
inactive: [13] 94 % of control | [14] 94 % of control | dose: 400.0 mg/kg/injection, schedule: Q04DX002 (ip), vehicle: Klucel (hydroxypropylcellulose) (HPC) 105 % of control

O=[N+]([O-])c1cc(O)ccc1Cl
inactive: [1] 93 % of control | [2] 102 % of control | dose: 100.0 mg/kg/injection, schedule: Q04DX003 (ip), vehicle: alcohol 104 % of control | [4] 87 % of control

CCCCCCCCC1SC1CCCCCCCC(=O)OCCCOC(=O)CCCCCCCC1SC1CCCCCCCC (stereo not drawn)
inactive: [16] 98 % of control | [18] 93 % of control | [20] 96 % of control
